Patent US20230355597A1, “COMPOUNDS, COMPOSITIONS, AND METHODS FOR THE TREATMENT AND PREVENTION OF AVIAN PATHOGENIC E. COLI (APEC)” (OHIO STATE INNOVATION FOUNDATION, priority 2018, published 2023)

Tests used:
[1] = system: QS and virulence associated genes of APEC O78; test: qRT-PCR of QS-regulated and virulence factors genes; type: cell-based, avian pathogenic Escherichia coli (APEC); details: 100 µM, 10 h
Protocol: Quantitative real-time reverse transcription PCR (qRT-PCR). […] APEC O78 was grown in the presence of 100 µM of each compound in a 96-well plate at 37° C. for 10 h. APEC O78 culture treated with 1 µL of 100% DMSO was used as […]. Total RNA was extracted from duplicate wells for each compound (200 µL) using a miRNeasy Mini Kit (Qiagen). RNA quality and quantity was determined by nanodrop 2000 C spectrophotometer (Thermo scientific). Traces of DNA was removed using Genomic DNA removal mix (Qiagen). Approximately, 5 µg of purified RNA was used to synthesize cDNA using the Qiagen RT^2 First Strand Kit (Qiagen). The qRT-PCR was performed using SensiMix™ SYBER® Hi-Rox qPCR Master Mix (Bioline) according to manufacturer instructions in a realplex^2 mastercycler (Eppendorf) with 55° C. annealing temperature. Gene-specific primers were designed using PrimerQuest Tool and obtained from integrated DNA technologies (IDT). The data were normalized to the house-keeping gene, glyceraldehyde-3-phosphate dehydrogenase (GAPDH). The relative fold change was calculated using the ΔΔCt method. Three independent experiments were conducted.

Caco-2 cells = test: LDH assay of AI-2 inhibitors; details: Caco-2, 100 µM, 24 h
[2] = system: AI-2 activity of APEC O78; test: AI-2 bioluminescence indicator assay (V. harveyi BB170); details: for Inhibition % of AI-2 activity: APEC O78, 100 µM
AI-2 activity of APEC O2 = test: as above; details: for Inhibition % of AI-2 activity: APEC O2, 100 µM
AI-2 activity of APEC O1 = test: as above; details: for Inhibition % of AI-2 activity: APEC O1, 100 µM
AI-2 activity of APEC O8 = test: as above; details: for Inhibition % of AI-2 activity: APEC O8, 100 µM
[3] = system: AI-2 activity of APEC O15; test: as above; details: APEC O15, 100 µM
[4] = system: AI-2 activity of APEC O18; test: as above; details: for Inhibition % of AI-2 activity: APEC O18, 100 µM
[5] = system: AI-2 activity of APEC O35; test: as above; details: APEC O35, 100 µM
[6] = system: AI-2 activity of APEC O109; test: as above; details: for Inhibition % of AI-2 activity: APEC O109, 100 µM
[7] = system: AI-2 activity of APEC O115; test: as above; details: APEC O115, 100 µM
APEC O2 in HD-11 cells = test: Intracellular survival assay (AI-2 inhibitors); details: O2, HD-11, 100 µM, 6 h; for reduction of intracellular survival: vs DMSO
Rif^r APEC O78 [8] = test: Wax moth (Galleria mellonella) larva infection model (AI-2 inhibitors); details: for larval death: 48 h post treatment
Rif^r APEC O78 [9] = test: In vivo screening of quorum sensing inhibitors in APEC infected broiler chickens; details: for reduction in chicken mortality: DMSO control mortality normalized to 100%; for average lesion score reduction: heart, lung and airsac, vs DMSO; for Mortality rate (%): oral gavage once a day, day 4 to day 8, DMSO control 66.7%; for Reduction in APEC lesions severity, Air-sacs (%) / Reduction in APEC lesions severity, Heart (%) / Reduction in APEC lesions severity, Liver (%) / Reduction in APEC lesions severity, Lung (%): vs DMSO treated control
APEC O78 in HD-11 cells = test: Intracellular survival assay (AI-2 inhibitors); type: cell-based, avian pathogenic Escherichia coli (APEC); details: O78, HD-11, 100 µM, 6 h
From the text: Intracellular survival assay.

APEC O2 in THP-1 cells = test: Intracellular survival assay (AI-2 inhibitors); details: O2, THP-1, 100 µM, 6 h
[10] = Escherichia coli, read-out: Inhibition % of AI-2 activity

Compound | expression of cheW [1] | expression of csrA [1] | toxicity (LDH) (Caco-2 cells) [%] | Inhibition % of AI-2 activity [2] [%] | Inhibition % of AI-2 activity (AI-2 activity of APEC O2) [%] | Inhibition % of AI-2 activity (AI-2 activity of APEC O1) [%] | Inhibition % of AI-2 activity (AI-2 activity of APEC O8) [%] | Inhibition % of AI-2 activity [3] [%] | Inhibition % of AI-2 activity [4] [%] | Inhibition % of AI-2 activity [5] [%] | Inhibition % of AI-2 activity [6] [%] | Inhibition % of AI-2 activity [7] [%] | expression of fliP [1] | expression of murD [1] | clearance of intracellular APEC (APEC O2 in HD-11 cells) [%] | reduction of intracellular survival (APEC O2 in HD-11 cells) [logs] | larval death (Rif^r APEC O78 [8]) | reduction in chicken mortality (Rif^r APEC O78 [9]) | average lesion score reduction (Rif^r APEC O78 [9]; liver) | Mortality rate (%) (Rif^r APEC O78 [9]) | also measured
COC(=S)NN=Cc1cc(C)ccc1O [C4, methyl N′-{2-hydroxy-5-methylbenzylidene)hydrazonethiocarbonate] | down-regulated | down-regulated | 12 | 75 | 76 | 63 | 0 | 46 | 54 | 60 | 67 | 58 | – | – | – | – | – | – | – | – | expression of iucD [1]: down-regulated; expression of pfs [1]: up-regulated
O=[N+]([O-])c1cccc(S(=O)(=O)Nc2ccc(Br)cc2)c1 [C6, N-(4-bromophenyl)-3-nitrobenzenesulfonamide] | down-regulated | down-regulated | 27 | – | – | – | – | – | – | – | – | – | down-regulated | down-regulated | 100 | 3.3 | no larval death | did not reduce | 0.7-1.3 | 66.7 | expression of fpr [1]: down-regulated; inhibition at 100 µM [2, 10]: 92%; inhibition at 100 µM (AI-2 activity of APEC O2; [10]): 93%; inhibition at 100 µM (AI-2 activity of APEC O1; Escherichia coli, read-out: Inhibition % of AI-2 activity, APEC O1, 100 µM): ≥ 75%; inhibition at 100 µM (AI-2 activity of APEC O8; Escherichia coli, read-out: Inhibition % of AI-2 activity, APEC O8, 100 µM): ≥ 75%; inhibition at 100 µM ([4]; Escherichia coli, read-out: Inhibition % of AI-2 activity, APEC O18, 100 µM): ≥ 75%; inhibition at 100 µM [6, 10]: 60%; Reduction in APEC lesions severity, Air-sacs (%) (Rif^r APEC O78 [9]): 53.3%; Reduction in APEC lesions severity, Heart (%) (Rif^r APEC O78 [9]): 43.8%; Reduction in APEC lesions severity, Liver (%) (Rif^r APEC O78 [9]): 54.5%; Reduction in APEC lesions severity, Lung (%) (Rif^r APEC O78 [9]): 66.7%
CCc1ccccc1Nc1nc(-c2c(C)nc3ccccn23)cs1 [C8, N-{2-ethyphenyl)-4-(2-methylimidazo[1,2-a]pyridin-3-yl)-1.3-thiazol-2-amine] | – | – | 2 | 98 | 94 | 41 | 18 | 25 | 54 | 57 | – | 44 | down-regulated | – | – | – | no larval death | 50% | 1.0-2.0 | 33.3 | clearance of APEC in live larvae (Rif^r APEC O78 [8]; 72 h): 100%; reduction of bacterial load in internal organs (Rif^r APEC O78 [9]; liver, lung, heart, and kidney, vs DMSO control, 'up to'): 2.2-3.1 log CFU/g; Reduction in APEC lesions severity, Air-sacs (%) (Rif^r APEC O78 [9]): 66.7%; Reduction in APEC lesions severity, Heart (%) (Rif^r APEC O78 [9]): 75%; Reduction in APEC lesions severity, Liver (%) (Rif^r APEC O78 [9]): 75%; Reduction in APEC lesions severity, Lung (%) (Rif^r APEC O78 [9]): 83.3%
Fc1ccc(CN2CCCN(Cc3nc(-c4ccc(C(F)(F)F)cc4)no3)CC2)cc1 [C9, 1-(4-flurobenzyl)-4-((3-[4-(trifluoromethyl)phenyl]-1,2,4-oxadiazol-5-yl]methyl)-1,4-diazapane] | down-regulated | down-regulated | – | 79 | 51 | 19 | 20 | 0 | 14 | 36 | 66 | 44 | – | down-regulated | 100 | 3.3 | – | – | – | – | clearance of intracellular APEC (APEC O78 in HD-11 cells): 100%; reduction of intracellular survival (APEC O78 in HD-11 cells; vs DMSO): 4 logs; clearance of intracellular APEC (APEC O2 in THP-1 cells): 100%; reduction of intracellular survival (APEC O2 in THP-1 cells; vs DMSO): 4 logs
